From US20250213532A1, “5-METHOXY-N,N-[…][…] THE TREATMENT OF BIPOLAR DISORDER” (GH RESEARCH IRELAND LIMITED, priority 2022, published 2025)

Experiments:
[1] = test system: patients with treatment-resistant major depressive disorder (TRD); assay: Phase 1/2 clinical trial of inhaled 5-MeO-DMT in TRD: safety and tolerability; conditions: Part A
Procedure: This trial was designed in two parts. Part A was an open-label, single-arm, single-dose Phase 1 trial with two dose levels (12 mg (n=4) and 18 mg (n=4)). […] The primary endpoint of Part B was to assess the effects on the severity of depression, as assessed by the proportion of patients in remission on day seven after dosing, defined as a MADRS total score of less than or equal to 10.

[2] = test system: patients with clinically diagnosed postpartum depression (PPD); assay: Clinical trial of inhaled 5-MeO-DMT in postpartum depression: BPRS; format: in vivo, human; conditions: one PPD patient; for BPRS Blunted affect improvement / BPRS Blunted affect score / BPRS Conceptual disorganization improvement / BPRS Conceptual disorganization score / BPRS Disorientation improvement / BPRS Disorientation score / BPRS Grandiosity improvement / BPRS Grandiosity score / BPRS Hallucinatory behaviour improvement / BPRS Hallucinatory behaviour score / BPRS Hostility improvement / BPRS Hostility score / BPRS Mannerisms and Posturing improvement / BPRS Mannerisms and Posturing score / BPRS Motor retardation improvement / BPRS Motor retardation score / BPRS Suspiciousness improvement / BPRS Suspiciousness score / BPRS Uncooperativeness improvement / BPRS Uncooperativeness score / BPRS Unusual Thought Content improvement / BPRS Unusual Thought Content score: baseline 1; for BPRS Excitement improvement / BPRS Excitement score: baseline 2; for BPRS Emotional withdrawal improvement / BPRS Emotional withdrawal score: baseline 5; for BPRS Anxiety improvement / BPRS Anxiety score: baseline 7
Source text: The patient completed all planned visit days.

COc1ccc2[nH]cc(CCN(C)C)c2c1 [5-MeO-DMT]
Patients who experienced at least one ADR ([1]; 12 mg single dose): 3 of 4
Patients who experienced at least one ADR ([1]; 18 mg single dose): 3 of 4
BPRS Blunted affect improvement ([2]; Day 1): 0
BPRS Blunted affect score ([2]; Day 1): 1
BPRS Conceptual disorganization improvement ([2]; Day 1): 0
BPRS Conceptual disorganization score ([2]; Day 1): 1
BPRS Disorientation improvement ([2]; Day 1): 0
BPRS Disorientation score ([2]; Day 1): 1
BPRS Grandiosity improvement ([2]; Day 1): 0
BPRS Grandiosity score ([2]; Day 1): 1
BPRS Hallucinatory behaviour improvement ([2]; Day 1): 0
BPRS Hallucinatory behaviour score ([2]; Day 1): 1
BPRS Hostility improvement ([2]; Day 1): 0
BPRS Hostility score ([2]; Day 1): 1
BPRS Mannerisms and Posturing improvement ([2]; Day 1): 0
BPRS Mannerisms and Posturing score ([2]; Day 1): 1
BPRS Motor retardation improvement ([2]; Day 1): 0
BPRS Motor retardation score ([2]; Day 1): 1
BPRS Suspiciousness improvement ([2]; Day 1): 0
BPRS Suspiciousness score ([2]; Day 1): 1
BPRS Uncooperativeness improvement ([2]; Day 1): 0
BPRS Uncooperativeness score ([2]; Day 1): 1
BPRS Unusual Thought Content improvement ([2]; Day 1): 0
BPRS Unusual Thought Content score ([2]; Day 1): 1
BPRS Excitement improvement ([2]; Day 1): 1
BPRS Excitement score ([2]; Day 1): 1
BPRS Emotional withdrawal improvement ([2]; Day 1): 4
BPRS Emotional withdrawal score ([2]; Day 1): 1
BPRS Depressive Mood improvement ([2]; Day 1, baseline 6): 5
BPRS Depressive Mood score ([2]; Day 1, baseline 6): 1
BPRS Guilt feelings improvement ([2]; Day 1, baseline 6): 5
BPRS Guilt feelings score ([2]; Day 1, baseline 6): 1
BPRS Somatic Concern improvement ([2]; Day 1, baseline 6): 5
BPRS Somatic Concern score ([2]; Day 1, baseline 6): 1
BPRS Tension score ([2]; Day 1, baseline 6): 1
BPRS Anxiety improvement ([2]; Day 1): 6
BPRS Anxiety score ([2]; Day 1): 1
BPRS Blunted affect improvement ([2]; Day 7): 0
BPRS Blunted affect score ([2]; Day 7): 1
BPRS Conceptual disorganization improvement ([2]; Day 7): 0
BPRS Conceptual disorganization score ([2]; Day 7): 1
BPRS Disorientation improvement ([2]; Day 7): 0
BPRS Disorientation score ([2]; Day 7): 1
BPRS Grandiosity improvement ([2]; Day 7): 0
BPRS Grandiosity score ([2]; Day 7): 1
BPRS Hallucinatory behaviour improvement ([2]; Day 7): 0
BPRS Hallucinatory behaviour score ([2]; Day 7): 1
BPRS Hostility improvement ([2]; Day 7): 0
BPRS Hostility score ([2]; Day 7): 1
BPRS Mannerisms and Posturing improvement ([2]; Day 7): 0
BPRS Mannerisms and Posturing score ([2]; Day 7): 1
BPRS Motor retardation improvement ([2]; Day 7): 0
BPRS Motor retardation score ([2]; Day 7): 1
BPRS Suspiciousness improvement ([2]; Day 7): 0
BPRS Suspiciousness score ([2]; Day 7): 1
BPRS Uncooperativeness improvement ([2]; Day 7): 0
BPRS Uncooperativeness score ([2]; Day 7): 1
BPRS Unusual Thought Content improvement ([2]; Day 7): 0
BPRS Unusual Thought Content score ([2]; Day 7): 1
BPRS Excitement improvement ([2]; Day 7): 1
BPRS Excitement score ([2]; Day 7): 1
BPRS Emotional withdrawal improvement ([2]; Day 7): 4
BPRS Emotional withdrawal score ([2]; Day 7): 1
BPRS Depressive Mood improvement ([2]; Day 7, baseline 6): 5
BPRS Depressive Mood score ([2]; Day 7, baseline 6): 1
BPRS Guilt feelings improvement ([2]; Day 7, baseline 6): 5
BPRS Guilt feelings score ([2]; Day 7, baseline 6): 1
BPRS Somatic Concern improvement ([2]; Day 7, baseline 6): 5
BPRS Somatic Concern score ([2]; Day 7, baseline 6): 1
BPRS Tension improvement ([2]; Day 7, baseline 6): 5
BPRS Tension score ([2]; Day 7, baseline 6): 1
BPRS Anxiety improvement ([2]; Day 7): 6
BPRS Anxiety score ([2]; Day 7): 1
BPRS Blunted affect improvement ([2]; Discharge): 0
BPRS Blunted affect score ([2]; Discharge): 1
BPRS Conceptual disorganization improvement ([2]; Discharge): 0
BPRS Conceptual disorganization score ([2]; Discharge): 1
BPRS Disorientation improvement ([2]; Discharge): 0
BPRS Disorientation score ([2]; Discharge): 1
BPRS Grandiosity improvement ([2]; Discharge): 0
BPRS Grandiosity score ([2]; Discharge): 1
BPRS Hallucinatory behaviour improvement ([2]; Discharge): 0
BPRS Hallucinatory behaviour score ([2]; Discharge): 1
BPRS Hostility improvement ([2]; Discharge): 0
BPRS Hostility score ([2]; Discharge): 1
BPRS Mannerisms and Posturing improvement ([2]; Discharge): 0
BPRS Mannerisms and Posturing score ([2]; Discharge): 1
BPRS Motor retardation improvement ([2]; Discharge): 0
BPRS Motor retardation score ([2]; Discharge): 1
BPRS Suspiciousness improvement ([2]; Discharge): 0
BPRS Suspiciousness score ([2]; Discharge): 1
BPRS Uncooperativeness improvement ([2]; Discharge): 0
BPRS Uncooperativeness score ([2]; Discharge): 1
BPRS Unusual Thought Content improvement ([2]; Discharge): 0
BPRS Unusual Thought Content score ([2]; Discharge): 1
BPRS Excitement improvement ([2]; Discharge): 1
BPRS Excitement score ([2]; Discharge): 1
BPRS Emotional withdrawal improvement ([2]; Discharge): 4
BPRS Emotional withdrawal score ([2]; Discharge): 1
BPRS Depressive Mood improvement ([2]; Discharge, baseline 6): 5
BPRS Depressive Mood score ([2]; Discharge, baseline 6): 1
BPRS Guilt feelings improvement ([2]; Discharge, baseline 6): 5
BPRS Guilt feelings score ([2]; Discharge, baseline 6): 1
BPRS Somatic Concern improvement ([2]; Discharge, baseline 6): 5
BPRS Somatic Concern score ([2]; Discharge, baseline 6): 1
BPRS Tension score ([2]; Discharge, baseline 6): 1
BPRS Anxiety improvement ([2]; Discharge): 6
BPRS Anxiety score ([2]; Discharge): 1
